# Entries after “also recorded” stand apart in the source; their conditions may differ.
# What was measured:
# zebrafish embryos = test: Zebrafish behavioral assay (light-dependent motor excitation, excitation score); assay type: in vivo; conditions: for behavioral excitation (activity of optovin analogs) / light-dependent motor excitation in vivo: 10 μM; for behavioral excitation (activity of optovin analogs): n=5, FIG. 2A; for light-dependent motor excitation in vivo: n=3, FIG. 4H
# Experimental: To identify small molecules for the optical control of endogenous channels, a screen was conducted for compounds that could drive light-dependent motor behaviors in wild-type zebrafish. Zebrafish embryos are particularly well suited for phenotype based chemical screens^28,29. They are blind for the first 3 days of development and other than a one-time motor response to the first light exposure in dark-adapted animals (the photomotor response, PMR), zebrafish embryos are unresponsive to light^31,30 (FIG. 1A). A library of 10,000 structurally diverse synthetic small molecules was screened for compounds that render zebrafish embryos responsive to light. Behavioral responses were measured for each well in comparison to a set of 2,500 DMSO treated controls. This screen identified a single compound, optovin, that increased motor activity greater than 40 standard deviations above the control mean (FIGS. 1A-1C).
# A large number of fertilized eggs (up to 5,000 embryos per day) were collected from group mating of Ekkwill or TuAB zebrafish. Embryos were raised in HEPES (10 mM) buffered E3 media in a dark incubator at 28° C. until […]. Groups of ˜8 embryos (28 hpf) were distributed into the wells of flat bottom black-walled 96 well plates filled with E3 media (360 μl). Embryos were then incubated in a dark incubator 25° C. for chemical treatment and subsequent experiments.
# The Tim Tec ACTIPROBEβ library contains 10,000 compounds dissolved in DMSO at a stock concentration of 1 mg/ml (˜3 mM). The Tim Tec library was screened at a 1:300 dilution in E3 buffer for a final concentration of ˜10 μM. Negative controls were treated with an equal volume of DMSO. Stock solutions were added directly to zebrafish in the wells of a 96 well plate, mixed, and allowed to incubate for 2-10 hours in the dark prior to behavioral evaluation in the PMR assay. The Tim Tec library (10,000 compounds) was purchased from the Tim Tec corporation (Newark, Del.). The Neurotransmitter Library (700 compounds; cat #2810) was purchased from Biomol International. Reordered hit compounds were dissolved in DMSO and added to wells as described above.
# Animals were exposed to a two pulse stimulus train with a 10 s inter-stimulus interval. Exposure to the first pulse was used to trigger the photomotor response, which has a refractory phase of approximately 10 minutes. […] In a typical assay, 1000 frames of digital video were recorded at 33 fps using a Hamamatsu ORCA-ER camera mounted on a Nikon TE200 microscope with a 1× objective. Instrument control and data measurement were performed using custom scripts for Metamorph Software (Molecular Devices). Each video was saved for review. Light stimuli were generated with a 300-watt xenon bulb housed in a Sutter Lambda LS illuminator and delivered to the well 10 s and 20 s after the start of each video. A cold mirror (reflectance between 300 nm and 700 nm) on the Sutter illuminator was used to block wavelengths outside of this range. Light intensity was measured using a PM100D power meter attached to a S120VC photodiode power sensor (Thorlabs). Where indicated, filters were used to restrict the excitation light to the indicated wavelengths.
# To analyze digital video recordings, custom software scripts were used to automatically draw six evenly spaced line segments across each well such that each embryo is likely to be crossed by one of the lines. The software then tracks the average intensity of the pixels for each segment over time. As the embryos move, the light intensity at some of the pixels changes. The motion index was calculated by taking the total absolute difference in pixel intensity between frames. This motion index correlates with the overall amount of motion in the well, both in terms of contraction frequency and number of animals in motion. Behavioral features are quantified by ‘excitation scores’ that are calculated by taking the 75th percentile of the motion index for 3-5 s following the light stimulus. […]
# [1] = system: dorsal root ganglia (DRG) sensory neurons; test: Calcium imaging of DRG sensory neurons; assay type: cell-based, mouse; conditions: 100 μM mustard oil
# Experimental: To determine if optovin acts on sensory neurons, the activity of treated and untreated dorsal root ganglia (DRG) sensory neurons isolated from wild type mice were compared. […] TRPA1 channels play important roles in detecting chemical, thermal, and mechanical stimuli in a variety of organisms^34,35.
# C57Bl/6 male mice (3-4 weeks old) were decapitated and DRG were dissected into 4° C. Hank's Balanced Salt Solution (HBSS; Gibco), then neurons were dissociated using collagenase (1 mg/mL; Worthington) and dispase (5 mg/mL; Gibco) dissolved in HBSS. Neurons were plated in Neurobasal-A medium (Invitrogen), supplemented with B-27 Supplement (Gibco), L-glutamine (Gibco), and penicillin-streptomycin (Gibco). The neurons were plated onto coverslips coated with 0.1 mg/mL poly-D-lysine (Sigma) and 5 μg/mL laminin (Sigma). After 24 h, neurons were washed with assay buffer (HBSS, supplemented with 9 mM HEPES, 11 mM D-glucose, 0.1% fatty-acid free BSA, pH 7.3) and incubated for 1 h with 2 μM Fura2-AM (Invitrogen) with 0.2% pluronic (Invitrogen) in assay buffer in the dark at room temperature. The neurons were then washed with assay buffer and allowed to equilibrate at room temperature for 30 min prior to imaging. After a 120 s baseline perfusion of assay buffer containing 3.3% DMSO, 100 μM optovin dissolved in the DMSO-assay buffer solution, or the DMSO-assay buffer solution alone as a control, was perfused onto the neurons for a period of 1 min. Fura-2 is activated with UV-light, and the process of imaging Fura-2 was enough to activate the optovin. […] Following this one-minute period, cells were perfused with DMSO-assay buffer to remove the agonist, which was followed by addition of 100 μM mustard oil (in DMSO-assay buffer) to determine the total number of TrpA1-expressing neurons present. Images were acquired on a Nikon Eclipse Ti microscope (Nikon, Melville, N.Y.).
structure (smiles),measurement,setting,value
CN(C)c1ccc(C=C2SC(=S)NC2=O)cc1 [6c7],behavioral excitation (activity of optovin analogs),zebrafish embryos,Neither analog retains activity; also recorded: inactive
"C1CN2CCN1CC2 [DABCO, 1,4-diazabicyclo[2.2.2]octane, reference compound]",effect on other light elicited behaviors (PMR),zebrafish embryos; co-treatment with optovin,not affect other light elicited behaviors
same,suppression of the optovin response in vivo,zebrafish embryos; co-treatment with optovin,completely suppress the optovin response
Cc1cc(/C=C2/NC(=O)NC2=O)c(C)n1-c1cccnc1 [6c4],behavioral excitation (activity of optovin analogs),zebrafish embryos,retains optovin activity
"C=CCN=C=S [mustard oil, reference compound]",response of optovin responsive DRG neurons to mustard oil,[1],responded to mustard oil
Cc1cc(C=C2SC(=O)NC2=O)c(C)n1-c1cccnc1 [6c2],behavioral excitation (activity of optovin analogs),zebrafish embryos,abrogate the optovin response; also recorded: inactive
CCN1C(=O)C(=Cc2cc(C)n(-c3cccnc3)c2C)SC1=S [6c3],behavioral excitation (activity of optovin analogs),zebrafish embryos,abrogate the optovin response; also recorded: inactive
O=C1CSC(=S)N1 [6c5],behavioral excitation (activity of optovin analogs),zebrafish embryos,Neither analog retains activity; also recorded: inactive
Cc1cc(/C=C2/SC(=S)NC2=O)c(C)n1-c1ccccc1 [6b8],behavioral excitation (activity of optovin analogs),zebrafish embryos,bioactive; also recorded: active
COc1cc(C(C)=C2SC(=S)NC2=O)ccc1O [7d1],light-dependent motor excitation in vivo,zebrafish embryos,does not cause light dependent motor activity
Cc1cc(/C=C2/SC(=S)NC2=O)c(C)n1C [6c1],behavioral excitation (activity of optovin analogs),zebrafish embryos,bioactive; also recorded: active
same,lowest effective dose,"zebrafish embryos; zebrafish, in vivo",300 nM
same,"lowest effective dose, fold lower than optovin","zebrafish embryos; zebrafish, in vivo",10 ×
COc1ccc(/C=C2/SC(=S)NC2=O)cc1O [7c7],light-dependent motor excitation in vivo,zebrafish embryos,cause light-dependent motor excitation
